Source: patent US12692249B2, “WDR5 inhibitors and modulators” (Vanderbilt University, priority 2019, dated 2026)
Like-named read-outs stand apart in the source and are kept apart here.

Tests used:
[1] = target: WDR5 (Homo sapiens, UniProt P61964); test: TR-FRET competition binding assay, displacement of 10mer-Thr-FAM MLL peptide probe from His-tagged WDR5; conditions: WDR5-His tag (residues 24-334) 2 nM; 10mer-Thr-FAM 150 nM; 60 min, room temperature; read-out: Ki for Inhibition of WDR5 by TR-FRET assay
[2] = tested on: MV4:11 human cancer cell lines; test: Cellular viability / anti-proliferative assay, CellTiter-Glo, 5 day protocol; format: cell-based; conditions: Homo sapiens, MV4-11, 120 h, read-out: GI50 on cellular proliferation of MV4:11 human cancer cell lines
Procedure, shortened: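 MV-4-11 cells in IMDM with 10% FBS, 200 cells/well, exposed 5 days to 22 two-fold dilutions from 30 μM, final DMSO 0.3%. Viability read by CellTiter-Glo luminescence; GI50 from sigmoidal dose-response fit, mean of at least two replicates.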

[3] = MV4:11 cells, 5 day incubation, CellTiter-Glo, mean of at least two replicates

Row | Structure (SMILES) | Ki [1] [nM] | GI50 [2, 3] [nM] | GI50 [2] [nM]
1 | COc1cc(CN2CCN(C)CC2)c2nccc(N3CCc4c(cc(Cn5ccnc5)cc4-c4cn(C)nc4C(F)(F)F)C3=O)c2c1 [Example 135, 7-((1H-Imidazol-1-yl)methyl)-2-(6-methoxy-8-((4-methylpiperazin-1-yl)methyl)quinolin-4-yl)-5-(1-methyl-3-(trifluoromethyl)-1H-pyrazol-4-yl)-3,4-dihydroisoquinolin-1(2H)-one] | 0.04 | < 20 | –
2 | COc1cc(C(=O)Nc2ncco2)c2nc(C)cc(N3CCc4c(cc(Cn5ccnc5)cc4-c4cn(C)nc4C(F)(F)F)C3=O)c2c1 [Example 200, 4-(7-((1H-Imidazol-1-yl)methyl)-5-(1-methyl-3-(trifluoromethyl)-1H-pyrazol-4-yl)-1-oxo-3,4-dihydroisoquinolin-2(1H)-yl)-6-methoxy-2-methyl-N-(oxazol-2-yl)quinoline-8-carboxamide] | < 0.02 | 28 | –
3 | CCc1cc(N2CCOCC2)c2nccc(N3CCc4c(cc(Cn5ccnc5)cc4-c4cn(C)nc4C(F)(F)F)C3=O)c2c1 [Example 36, 7-((1H-Imidazol-1-yl)methyl)-2-(6-ethyl-8-morpholinoquinolin-4-yl)-5-(1-methyl-3-(trifluoromethyl)-1H-pyrazol-4-yl)-3,4-dihydroisoquinolin-1(2H)-one] | < 0.02 | 23 | –
4 | CCc1ccc2cncc(N3CCc4c(cc(Cn5ccnc5)cc4-c4cn(C)nc4C(F)(F)F)C3=O)c2c1 [Example 89, 7-((1H-Imidazol-1-yl)methyl)-6′-ethyl-5-(1-methyl-3-(trifluoromethyl)-1H-pyrazol-4-yl)-3,4-dihydro-1H-[2,4′-biisoquinolin]-1-one] | 0.022 | 22 | –
5 | Cc1cnc2cccc(N3CCc4c(cc(Cn5ccnc5)cc4-c4cn(C)nc4C(F)(F)F)C3=O)c2c1 [Example 104, 7-((1H-Imidazol-1-yl)methyl)-5-(1-methyl-3-(trifluoromethyl)-1H-pyrazol-4-yl)-2-(3-methylquinolin-5-yl)-3,4-dihydroisoquinolin-1(2H)-one] | 0.028 | 24 | –
6 | Cc1ccc2cncc(N3CCc4c(cc(Cc5cn(C)cn5)cc4-c4cn(C)nc4C(F)(F)F)C3=O)c2c1 [Example 58, 6′-Methyl-7-((1-methyl-1H-imidazol-4-yl)methyl)-5-(1-methyl-3-(trifluoromethyl)-1H-pyrazol-4-yl)-3,4-dihydro-1H-[2,4′-biisoquinolin]-1-one] | 0.025 | 191 | –
7 | Cc1nccn1Cc1cc2c(c(-c3cn(C)nc3C(F)(F)F)c1)CCN([C@H]1CCc3ccccc31)C2=O [Example 76, (S)-2-(2,3-Dihydro-1H-inden-1-yl)-7-((2-methyl-1H-imidazol-1-yl)methyl)-5-(1-methyl-3-(trifluoromethyl)-1H-pyrazol-4-yl)-3,4-dihydroisoquinolin-1(2H)-one] | < 0.02 | 613 | –
8 | COc1ccc2nc(C)cc(N3CCc4c(cc(Cn5ccnc5N)cc4-c4cn(C)nc4C(F)(F)F)C3=O)c2c1 [Example 121, 7-((2-Amino-1H-imidazol-1-yl)methyl)-2-(6-methoxy-2-methylquinolin-4-yl)-5-(1-methyl-3-(trifluoromethyl)-1-1H-pyrazol-4-yl)-3,4-dihydroisoquinolin-1(2H)-one] | 0.023 | < 20 | –
9 | CCc1cc(OCCOC)c2nccc(N3CCc4c(cc(Cn5ccnc5)cc4-c4cn(C)nc4C(F)(F)F)C3=O)c2c1 [Example 140, 7-((1H-Imidazol-1-yl)methyl)-2-(6-ethyl-8-(2-methoxyethoxy)quinolin-4-yl)-5-(1-methyl-3-(trifluoromethyl)-1H-pyrazol-4-yl)-3,4-dihydroisoquinolin-1(2H)-one] | < 0.02 | < 20 | –
10 | CCc1cc(COC)c2nccc(N3CCc4c(cc(Cn5ccnc5)cc4-c4cn(C)nc4C(F)(F)F)C3=O)c2c1 [Example 188, 7-((1H-Imidazol-1-yl)methyl)-2-(6-ethyl-8-(methoxymethyl)quinolin-4-yl)-5-(1-methyl-3-(trifluoromethyl)-1H-pyrazol-4-yl)-3,4-dihydroisoquinolin-1(2H)-one] | < 0.02 | < 20 | –
11 | CCc1cc(C(=O)NCCNC(=O)c2cscn2)c2nccc(N3CCc4c(cc(Cn5ccnc5)cc4-c4cn(C)nc4C(F)(F)F)C3=O)c2c1 [Example 216, N-(2-(4-(7-((1H-Imidazol-1-yl)methyl)-5-(1-methyl-3-(trifluoromethyl)-1H-pyrazol-4-yl)-1-oxo-3,4-dihydroisoquinolin-2(1H)-yl)-6-ethylquinoline-8-carboxamido)ethyl)thiazole-4-carboxamide] | < 0.02 | < 20 | –
12 | Cc1cc(N2CCc3c(cc(Cn4ccnc4)cc3-c3cn(C)nc3C(F)(F)F)C2=O)c2cc(N3CC(F)C3)cc(C#N)c2n1 [Example 203, 4-(7-((1H-Imidazol-1-yl)methyl)-5-(1-methyl-3-(trifluoromethyl)-1H-pyrazol-4-yl)-1-oxo-3,4-dihydroisoquinolin-2(1H)-yl)-6-(3-fluoroazetidin-1-yl)-2-methylquinoline-8-carbonitrile] | 0.025 | 49 | –
13 | Cc1ccc2cncc(N3CCc4c(cc(Cn5ccnc5)cc4-c4cn(C)nc4C(F)(F)F)C3=O)c2c1 [Example 16, 7-((1H-Imidazol-1-yl)methyl)-6′-methyl-5-(1-methyl-3-(trifluoromethyl)-1H-pyrazol-4-yl)-3,4-dihydro-1-[2,4′-biisoquinolin]-1-one] | 0.028 | 42 | –
14 | CCc1cc(OC)c2nccc(N3CCc4c(cc(Cn5ccnc5)cc4-c4cn(C)nc4C(F)(F)F)C3=O)c2c1 [Example 20, 7-((1H-Imidazol-1-yl)methyl)-2-(6-ethyl-8-methoxyquinolin-4-yl)-5-(1-methyl-3-(trifluoromethyl)-1H-pyrazol-4-yl)-3,4-dihydroisoquinolin-1(2H)-one] | < 0.02 | < 20 | –
15 | COc1cnc2cncc(N3CCc4c(cc(Cn5ccnc5)cc4-c4cn(C)nc4C(F)(F)F)C3=O)c2c1 [Example 214, 7-((1H-imidazol-1-yl)methyl)-2-(3-methoxy-1,7-naphthyridin-5-yl)-5-(1-methyl-3-(trifluoromethyl)-1H-pyrazol-4-yl)-3,4-dihydroisoquinolin-1(2H)-one] | < 0.02 | < 20 | –
16 | COc1cc(CN2CCN3CCOC[C@@H]3C2)c2nccc(N3CCc4c(cc(Cn5ccnc5)cc4-c4cn(C)nc4C(F)(F)F)C3=O)c2c1 [Example 141, (S)-7-((1H-Imidazol-1-yl)methyl)-2-(8-((hexahydropyrazino[2,1-c][1,4]oxazin-8(1H)-yl)methyl)-6-methoxyquinolin-4-yl)-5-(1-methyl-3-(trifluoromethyl)-1H-pyrazol-4-yl)-3,4-dihydroisoquinolin-1(2H)-one] | 0.07 | < 20 | –
17 | CCc1cc(OC)c2cncc(N3CCc4c(cc(Cn5ccnc5)cc4-c4cn(C)nc4C(F)(F)F)C3=O)c2c1 [Example 116, 7-((1H-Imidazol-1-yl)methy)-6′-ethyl-8-methoxy-5-(1-methyl-3-(trifluoromethyl)-1H-pyrazol-4-yl)-3,4-dihydro-1H-[2,4′-biisoquinolin]-one] | 0.028 | – | < 20
18 | COc1cnc2c(c1)[C@@H](N1CCc3c(cc(Cn4ccnc4C)cc3-c3cn(C)nc3C(F)(F)F)C1=O)CCC2 [Example 68, (S)-2-(3-Methoxy-5,6,7,8-tetrahydroquinolin-5-yl)-7-((2-methyl-1H-imidazol-1-yl)methyl)-5-(1-methyl-3-(trifluoromethyl)-1H-pyrazol-4-yl)-3,4-dihydroisoquinolin-1(2H)-one] | < 0.02 | < 20 | –
19 | Cc1ccc2c(N3CCc4c(cc(Cn5ccnc5)cc4-c4cn(C)nc4C(F)(F)F)C3=O)cccc2n1 [Example 103, 7-((1H-Imidazol-1-yl)methyl)-5-(1-methyl-3-(trifluoromethyl)-1H-pyrazol-4-yl)-2-(2-methylquinolin-5-yl)-3,4-dihydroisoquinolin-1(2H)-one] | 0.029 | 718 | –
20 | Cc1ccc2c(c1)C(N1CCc3c(cc(Cn4ccnc4C)cc3-c3cn(C)nc3C(F)(F)F)C1=O)CCO2 (stereo not shown) [Example 62, 7-((2-Methyl-1H-imidazol-1-yl)methyl)-5-(1-methyl-3-(trifluoromethyl)-1H-pyrazol-4-yl)-2-(6-methylchroman-4-yl)-3,4-dihydroisoquinolin-1(2H)-one] | 0.028 | 25 | –
21 | Cc1ccc2cncc(N3CCc4c(cc(C(O)c5cn(C)cn5)cc4-c4cn(C)nc4C(F)(F)F)C3=O)c2c1 (stereo not shown) [Example 57, 7-(Hydroxy(1-methyl-1H-imidazol-4-yl)methyl)-6′-methyl-5-(1-methyl-3-(trifluoromethyl)-1H-pyrazol-4-yl)-3,4-dihydro-1H-[2,4′-biisoquinolin]-1-one] | 27 | 29000 | –
22 | COCc1cc(OC)cc2c(N3CCc4c(cc(Cn5ccnc5)cc4-c4cn(C)nc4C(F)(F)F)C3=O)ccnc12 [Example 136, 7-((1H-Imidazol-1-yl)methyl)-2-(6-methoxy-8-(methoxymethyl)quinolin-4-yl)-5-(1-methyl-3-(trifluoromethyl)-1H-pyrazol-4-yl)-3,4-dihydroisoquinolin-1(2H)-one] | < 0.02 | < 20 | –
23 | Cc1cc2c(N3CCc4c(cc(Cn5ccnc5)cc4-c4cn(C)nc4C(F)(F)F)C3=O)cccc2nc1C [Example 108, 7-((1H-imidazol-1-yl)methy)-2-(2,3-dimethylquinolin-5-yl)-5-(1-methyl-3-(trifluoromethyl)-1H-pyrazol-4-yl)-3,4-dihydroisoquinolin-1(2H)-one] | 0.042 | 40 | –
